According to patent publication US11752125B2, “Anti-neuroinflammatory and protective compounds in Achillea fragrantissima” (THE STATE OF ISRAEL MINISTRY OF AGRICULTURE & RURAL …, priority 2013, dated 2023):

What was measured:
NO = NO (nitrite) production by LPS-activated microglial cells (Griess); format: cell-based, rat; settings: Rattus norvegicus; 40 μM (highest concentration tested); LPS 4.5 ng/mL, 20 h; read-out: inhibition of NO secretion
Method: Cultures of primary rat microglial cells were prepared from cerebral cortices of 1-2 day-old neonatal Wistar rats as described. Microglial cells were seeded at 24-well plastic plates at 1×10^5/well in RPMI-1640 containing 2% FBS, 2 mM glutamine, 100 U/mL penicillin, 100 µg/mL streptomycin, 1 mM sodium pyruvate, and 50 μM β-mercaptoethanol. Cells were cultured for 36 h before treatments. The research was conducted in accordance with the NIH guide for the care and use of laboratory animals, and was approved by the Institutional Animal Care and Use Committee of The Volcani Center, Agricultural Research Organization (IL-135/07, approval date Apr. 11, 2007). All efforts were made to minimize animal suffering, and to reduce the number of animals used.
For NO measurements, 1×10^5 microglial cells/well were plated in a 24-well tissue culture plate. Cells were stimulated with LPS (4.5 ng/mL) and concomitantly treated with achillolide A or a reference drug. NO levels in the culture medium were estimated with Griess reagent.
3. Activate microglial cells with lipopolysaccharide (LPS, 4.5 nanograms/mL);
In FIG. 21 A, microglial cells were treated with different concentrations of achillolide A, dexamethasone or memantine (as reference drugs) and were concomitantly activated by LPS (4.5 ng/mL) for 20 h. Cell conditioned supernatants were collected, and the levels of NO were measured using Griess reaction. Cytotoxicity was measured using the LDH method (FIG. 21B). Values represent the mean±SEM (n=12 for each treatment). ** p<0.01; ***p<0.001 relative to cells that were treated to LPS only.

SAPK/JNK = assay: H2O2-induced SAPK/JNK phosphorylation in astrocytes (ELISA); format: cell-based, rat; settings: H2O2 175 μM 40 min
Method: Astrocytes were treated with TTF 2 h before the addition of H2O2. Cells were lysed 40 minutes after the addition of H2O2 in lysis buffer supplied by PathScan sandwich ELISA kit (Cell Signaling TECHNOLOGY) according to the manufacturer's protocol. Protein concentrations in cell lysates were determined by Bradford reagent (Bio-Rad, Hercules, Calif.), and equal amounts of proteins were subjected to ELISA. To measure the amount of total and phosphoSAPK/JNK in cell lysates of astrocytes, ELISA was performed according to the manufacturer's protocol using the PathScan total SAPK/JNK sandwich ELISA kit (Cell Signaling TECHNOLOGY) and the PathScan phospho-SAPK/JNK (Thr183/Tyr185) sandwich ELISA kit (Cell Signaling TECHNOLOGY), respectively. […] The optical density was determined at 450 nm using a microplate reader.
1. […] Determine the optical density at 450 nm using a microplate reader.
Astrocytes were treated with 175 μM of H2O2 for 40 min following preincubation with TTF for 2 h. The levels of phosphorylated and total SAPK/JNK (FIG. 3A), MEK1 (FIG. 3B) and ERK 1/2 (FIG. 3C) were measured by ELISA. […]

N2a neuronal cells = assay: Aβ25-35-induced neuronal cell death (LDH, crystal violet); format: cell-based; settings: Aβ25-35 25 μM, 20 hr; LDH and crystal violet
Method: Treat N2a neuronal cells with 25 micromolars of freshly diluted Aβ25-35 in the presence or absence of AcA or TTF.
N2a neuronal cells were treated with Aβ25-35 (25 μM) and TTF. Cytotoxicity (FIG. 10A) and viability (FIG. 10B) were obtained through LDH method and Crystal violet staining respectively and measured 20 hr later. The results are the mean±SEM of two different experiments (n=15).
N2a neuronal cells were treated with Aβ25-35 (25 μM) and achillolide A. Cytotoxicity (FIG. 27A) viability (FIG. 27B) and ROS levels (FIG. 27C) were measured 20 hr later. The results are the mean±SEM of two different experiments (n=16).

Structure (SMILES)	inhibition at 40 µM (NO)	effect on H2O2-induced phosphorylation of SAPK/JNK (SAPK/JNK; astrocytes preincubated 2 h)	effect on Aβ25-35-induced cytotoxicity (N2a neuronal cells)	inhibition of H2O2-induced phosphorylation of SAPK/JNK (SAPK/JNK; astrocytes pretreated 2 h, total SAPK/JNK not affected)
CC12CC3CC(C)(C1)CC(N)(C3)C2 [memantine, reference compound]	64%			
C=C1CCC2=C(CO)C(=O)O[C@H]2/C=C(\C)[C@H](OC(C)=O)CC1=O [achillolide A]	66%	inhibitory effect	prevents the cytotoxic effect at nanomolar concentrations	
COc1cc(-c2oc3cc(OC)c(OC)c(O)c3c(=O)c2O)ccc1O [TTF, 3,5,4′-trihydroxy-6,7,3′-trimethoxyflavone]			prevents the cytotoxic effect at nanomolar concentrations	80%
